Measurements from patent US20250320228A1, “PYRIDO[3,2-D]PYRIMIDINES AS HPK1 INHIBITORS” (Merck Patent GmbH, priority 2022, published 2025).
Read-outs that look alike come from different tables or passages of the source.

Legend:
HPK1 pSLP76 (Ser376) = assay: Cellular assay phospho-SLP-76 (Ser376); type: cell-based, human; details: read-out: HPK1 pSLP76 IC50
Procedure: Cellular Assay—Phospho-SLP-76 (Ser376).
Inhibition of HPK1 enzymatic activity in cells was determined by detection of SLP76 phosphorylation at Ser376 residue in lysate from Jurkat (human) and EL-4 (mouse) cells. Jurkat and EL-4 cells express both HPK1 and SLP76 naturally. All cells were cultured in RPMI 1640 media containing 10% heat inactivated fetal bovine serum (FBS) and 1× Penicillin-Streptomycin. In either Jurkat or El-4 assay, cells were pre-incubated with test compounds prior to T cell stimulation by respective αCD3/αCD28 Dynabeads™. For detection, plates were read on the Envision and percent inhibition and IC50 were determined by Smart fit in Genedata Analyzer.
For Jurkat cells: 35 μL cell suspension were dispensed at a density of 30,000 cells/well in 384-well plates containing HBSS (Gibco, 14025076)+0.1% BSA). 10-point logarithmic serial dilution of test compounds in DMSO were prepared by a Hamilton automated liquid handling robot and 35 nL was transferred into each well by an Echo liquid handler. After 60 min. pre-incubation, the cells were stimulated by adding 5 μL human T activator αCD3/αCD28 Dynabeads™ (Gibco, 11132D) at 1.2×107 beads/ml for 15 minutes at 37° C. Detection of Ser376 phosphorylation status was accomplished by first adding 10 μL of 5× AlphaLISA lysis buffer (Perkin Elmer, ALSU-PSLP-A500) to each well of the cell plate using a Multidrop Combi (5840300), followed by 20 minutes shaking. 10 μL cell lysate from each treatment were then transferred to a white 384-well plate (Corning 3572) and incubated with AlphaLISA acceptor beads for one hour (AlphaLISA SureFire Ultra p-SLP76 (Ser376), Perkin Elmer, ALSU-PSLP-A500), and donor beads for additional 2 hours at room temperature in the dark. […]

[1] = target: full-length human HPK1 (MAP4K1) (Homo sapiens (Human), UniProt Q92918); assay: HPK1 kinase assay (biochemical, ADP-Glo); details: read-out: HPK1 enzymatic IC50
full-length human HPK1 (MAP4K1), sequence (Q92918 whole entry): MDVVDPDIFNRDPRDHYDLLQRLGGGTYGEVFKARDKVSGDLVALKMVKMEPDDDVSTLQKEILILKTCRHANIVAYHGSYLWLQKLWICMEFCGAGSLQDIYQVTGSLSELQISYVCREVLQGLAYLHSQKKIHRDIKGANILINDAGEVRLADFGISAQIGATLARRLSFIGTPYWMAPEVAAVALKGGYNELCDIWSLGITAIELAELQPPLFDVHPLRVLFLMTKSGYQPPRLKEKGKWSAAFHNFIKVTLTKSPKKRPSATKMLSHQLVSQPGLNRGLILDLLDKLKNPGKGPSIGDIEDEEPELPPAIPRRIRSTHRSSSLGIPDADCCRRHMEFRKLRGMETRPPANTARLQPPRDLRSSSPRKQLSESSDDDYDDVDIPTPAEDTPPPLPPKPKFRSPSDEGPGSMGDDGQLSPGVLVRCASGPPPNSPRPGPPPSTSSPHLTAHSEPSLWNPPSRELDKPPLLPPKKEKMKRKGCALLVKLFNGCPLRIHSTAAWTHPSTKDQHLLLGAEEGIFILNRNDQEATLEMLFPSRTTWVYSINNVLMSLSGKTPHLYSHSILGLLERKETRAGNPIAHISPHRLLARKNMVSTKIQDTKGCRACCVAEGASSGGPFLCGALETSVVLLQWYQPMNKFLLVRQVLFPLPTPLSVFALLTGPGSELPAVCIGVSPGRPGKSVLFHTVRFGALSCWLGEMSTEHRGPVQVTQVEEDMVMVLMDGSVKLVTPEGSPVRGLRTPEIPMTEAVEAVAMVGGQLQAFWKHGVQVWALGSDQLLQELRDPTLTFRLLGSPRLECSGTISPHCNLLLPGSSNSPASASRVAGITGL
Description: HPK1 kinase assay (Biochemical assay).
A recombinant fusion protein consisting of full-length human HPK1 (MAP4K1) with an N-terminal Glutatione S-transferase (GST) tag was produced in insect cells Sf21 using the baculovirus expression system. GST-HPK1 protein was purified from cell lysates by glutathione Sepharose affinity chromatography. The assay is run in three continuous steps: 1) the HPK1 enzymatic kinase reaction, 2) an ATP depletion, and 3) the ADP detection, the steps 2 and 3 are performed with ADP-Glo™ Kinase Assay kit from Promega (V9101). Test compounds were prepared by 10-point serial dilution in dimethyl sulfoxide (DMSO) and 100 nL of each dilution was spotted onto a 384-well Optiplate (Perkin Elmer and Cat #6007299) by Labcyte Echo. 5 μL kinase reaction buffer (0.02% Brij-35, 2 mM DTT, 50 mM HEPES pH 7.5, MgCl2 10 mM, BSA 0.01% and β-glycerophosphate 12.5 mM) containing HPK1 (3.2 nM) enzyme was transferred to each well and incubated for 15 minutes at room temperature at 60% humidity. The enzymatic reaction was started by adding 5 μl of Start-Mix (10 μM ATP and 3.235 μM MBP). After 120 minutes, the reaction was stopped by adding 5 μL of ADP-Glo reagent (Promega, V9101) and incubating for 40 min. in the dark at 23° C. To determine the level of ADP, 10 μl ADP-Glo Detection solution was added and incubated for 1 hour at 23° C. in the dark. The plate was transferred to a Perkin Elmer EnVision (2104 Multilabel Reader) for luminescence detection and percent inhibition activity and IC50 value were determined using Genedata Screener.

[2] = SLP76 Ser376 phosphorylation after αCD3/αCD28 stimulation, Jurkat (human) or EL-4 (mouse) cells, table does not say which
[3] = GST-HPK1 3.2 nM, 10 μM ATP, MBP substrate, ADP-Glo

Row | Structure (SMILES) | IC50 (HPK1 pSLP76 (Ser376); [2]) | IC50 [1, 3] | IC50 (HPK1 pSLP76 (Ser376); Homo sapiens, Jurkat) | IC50 [1]
1 | NC(=O)c1cc(-c2cc(F)c(OCC3(O)CCC3)c(F)c2)nc2c(N[C@@H]3CNC[C@@H](F)C3)ncnc12 [Example 33, 6-(3,5-difluoro-4-((1-hydroxycyclobutyl)methoxy)phenyl)-4-(((3S,5S)-5-fluoropiperidin-3-yl)amino)pyrido[3,2-d]pyrimidine-8-carboxamide] | < 500 nM | < 100 nM |  | 
2 | NC(=O)c1cc(-c2ccc(OCC3(O)CC3)cc2)nc2c(N[C@@H]3CNC[C@@H](F)C3)ncnc12 [Example 34, 4-(((3S,5S)-5-fluoropiperidin-3-yl)amino)-6-(4-((1-hydroxycyclopropyl)methoxy)phenyl)pyrido[3,2-d]pyrimidine-8-carboxamide] |  |  | < 500 nM | < 100 nM
3 | NC(=O)c1cc(-c2cnn(C3CC3)c2)nc2c(N[C@@H]3CNC[C@@H](F)C3)ncnc12 [Example 36, 6-(1-cyclopropyl-1H-pyrazol-4-yl)-4-(((3S,5S)-5-fluoropiperidin-3-yl)amino)pyrido[3,2-d]pyrimidine-8-carboxamide] | 500 to 1000 nM | < 100 nM |  | 
4 | NC(=O)c1cc(-c2cc(F)c(OCC3(O)CCOCC3)c(F)c2)nc2c(N[C@@H]3CNC[C@@H](F)C3)ncnc12 [Example 37, 6-(3,5-difluoro-4-((4-hydroxytetrahydro-2H-pyran-4-yl)methoxy)phenyl)-4-(((3S,5S)-5-fluoropiperidin-3-yl)amino)pyrido[3,2-d]pyrimidine-8-carboxamide] | < 500 nM | < 100 nM |  | 
5 | CC(C)(O)COc1ccc(-c2cc(C(N)=O)c3ncnc(N[C@@H]4CNCC[C@@H]4F)c3n2)cc1 [Example 38, 4-(((3R,4S)-4-fluoropiperidin-3-yl)amino)-6-(4-(2-hydroxy-2-methylpropoxy)phenyl)pyrido[3,2-d]pyrimidine-8-carboxamide] | < 500 nM | < 100 nM |  | 
6 | CC(O)(C#N)COc1ccc(-c2cc(C(N)=O)c3ncnc(N[C@H]4CCCNC4)c3n2)cc1 (stereo partly drawn) [Example 40, 6-(4-(2-cyano-2-hydroxypropoxy)phenyl)-4-(((S)-piperidin-3-yl)amino)pyrido[3,2-d]pyrimidine-8-carboxamide] | > 1000 nM | < 100 nM |  | 
7 | CC(C)(O)COc1ccc(-c2cc(C(N)=O)c3ncnc(N[C@@H]4CNCC[C@H]4F)c3n2)cc1 [Example 42, 4-(((3R,4R)-4-fluoropiperidin-3-yl)amino)-6-(4-(2-hydroxy-2-methylpropoxy)phenyl)pyrido[3,2-d]pyrimidine-8-carboxamide] | < 500 nM | < 100 nM |  | 
8 | NC(=O)c1cc(-c2cc(F)c(OCC3(O)CCOCC3)c(F)c2)nc2c(N[C@H]3CCCNC3)ncnc12 [Example 43, (S)-6-(3,5-difluoro-4-((4-hydroxytetrahydro-2H-pyran-4-yl)methoxy)phenyl)-4-(piperidin-3-ylamino)pyrido[3,2-d]pyrimidine-8-carboxamide] | < 500 nM | < 100 nM |  | 
9 | NC(=O)c1cc(-c2ccc(CC3(F)CCOCC3)cc2)nc2c(N[C@H]3CCCNC3)ncnc12 [Example 44, (S)-6-(4-((4-fluorotetrahydro-2H-pyran-4-yl)methyl)phenyl)-4-(piperidin-3-ylamino)pyrido[3,2-d]pyrimidine-8-carboxamide] | < 500 nM | < 100 nM |  | 
10 | CC(C)(O)C(F)(F)Oc1ccc(-c2cc(C(N)=O)c3ncnc(N[C@H]4CCCNC4)c3n2)cc1 [Example 47, (S)-6-(4-(1,1-difluoro-2-hydroxy-2-methylpropoxy)phenyl)-4-(piperidin-3-ylamino)pyrido[3,2-d]pyrimidine-8-carboxamide] | 500 to 1000 nM | < 100 nM |  | 
11 | NC(=O)c1cc(-c2ccc(O[C@H]3CN4CCC3CC4)cc2)nc2c(N[C@H]3CCCNC3)ncnc12 [Example 50, 4-(((S)-piperidin-3-yl)amino)-6-(4-(((R)-quinuclidin-3-yl)oxy)phenyl)pyrido[3,2-d]pyrimidine-8-carboxamide] |  |  | > 1000 nM | < 100 nM
12 | C[C@@H](O)COc1ccc(-c2cc(C(N)=O)c3ncnc(N[C@H]4CCCNC4)c3n2)cc1 [Example 51, 6-(4-((R)-2-hydroxypropoxy)phenyl)-4-(((S)-piperidin-3-yl)amino)pyrido[3,2-d]pyrimidine-8-carboxamide] |  |  | < 500 nM | < 100 nM

Second part, led by results:

Row | IC50 (HPK1 pSLP76 (Ser376); [2]) | IC50 [1, 3] | Structure (SMILES) | IC50 (HPK1 pSLP76 (Ser376); Homo sapiens, Jurkat) | IC50 [1]
13 | > 1000 nM | < 100 nM | NC(=O)c1cc(-c2ccc(N3CCC(O)C3)nc2)nc2c(N[C@@H]3CNC[C@@H](F)C3)ncnc12 (stereo partly drawn) [Example 32, 4-(((3S,5S)-5-fluoropiperidin-3-yl)amino)-6-(6-(3-hydroxypyrrolidin-1-yl)pyridin-3-yl)pyrido[3,2-d]pyrimidine-8-carboxamide] |  | 
14 | 500 to 1000 nM | < 100 nM | NC(=O)c1cc(-c2ccc(OCC3(O)CCCC3)cc2)nc2c(N[C@@H]3CNC[C@@H](F)C3)ncnc12 [Example 35, 4-(((3S,5S)-5-fluoropiperidin-3-yl)amino)-6-(4-((1-hydroxycyclopentyl)methoxy)phenyl)pyrido[3,2-d]pyrimidine-8-carboxamide] |  | 
15 | < 500 nM | < 100 nM | NC(=O)c1cc(-c2ccc(OCC3(O)CCCC3)cc2)nc2c(N[C@H]3CCCNC3)ncnc12 [Example 41, (S)-6-(4-((1-hydroxycyclopentyl)methoxy)phenyl)-4-(piperidin-3-ylamino)pyrido[3,2-d]pyrimidine-8-carboxamide] |  | 
16 | > 1000 nM | < 100 nM | COCCOc1ccc(-c2cc(C(N)=O)c3ncnc(N[C@H]4CCCNC4)c3n2)c(C#N)c1 [Example 46, (S)-6-(2-cyano-4-(2-methoxyethoxy)phenyl)-4-(piperidin-3-ylamino)pyrido[3,2-d]pyrimidine-8-carboxamide] |  | 
17 | < 500 nM | < 100 nM | COCCOc1ccc(-c2cc(C(N)=O)c3ncnc(N[C@@H]4CNCC[C@H]4F)c3n2)cc1 [Example 48, 4-(((3R,4R)-4-fluoropiperidin-3-yl)amino)-6-(4-(2-methoxyethoxy)phenyl)pyrido[3,2-d]pyrimidine-8-carboxamide] |  | 
18 | > 1000 nM | > 1000 nM | COCCOc1ccc(-c2cc(C(N)=O)c3ncnc(N[C@H]4CNCC[C@@H]4F)c3n2)cc1 [Example 49, 4-(((3S,4S)-4-fluoropiperidin-3-yl)amino)-6-(4-(2-methoxyethoxy)phenyl)pyrido[3,2-d]pyrimidine-8-carboxamide] |  | 
19 | < 500 nM | < 100 nM | NC(=O)c1cc(-c2ccc(OCCCN3CCOCC3)cc2)nc2c(N[C@H]3CCCNC3)ncnc12 [Example 52, (S)-6-(4-(3-morpholinopropoxy)phenyl)-4-(piperidin-3-ylamino)pyrido[3,2-d]pyrimidine-8-carboxamide] |  | 
20 | > 1000 nM | < 100 nM | CS(=O)(=O)Cc1ccc(-c2cc(C(N)=O)c3ncnc(N[C@H]4CCCNC4)c3n2)cc1 [Example 54, (S)-6-(4-((methylsulfonyl)methyl)phenyl)-4-(piperidin-3-ylamino)pyrido[3,2-d]pyrimidine-8-carboxamide] |  | 
21 | > 1000 nM | < 100 nM | COCCOc1ccc(-c2cc(C(N)=O)c3ncnc(N[C@H]4CCCNC4)c3n2)cn1 [Example 55, (S)-6-(6-(2-methoxyethoxy)pyridin-3-yl)-4-(piperidin-3-ylamino)pyrido[3,2-d]pyrimidine-8-carboxamide] |  | 
22 | < 500 nM | < 100 nM | CC1(F)CN(Cc2ccc(-c3cc(C(N)=O)c4ncnc(N[C@H]5CCCNC5)c4n3)cc2)C1 [Example 56, (S)-6-(4-((3-fluoro-3-methylazetidin-1-yl)methyl)phenyl)-4-(piperidin-3-ylamino)pyrido[3,2-d]pyrimidine-8-carboxamide] |  | 
